# Results from PubChem BioAssay (NCI).
#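 Where inhibition never reached the appropriate level, the endpoint shown equals the highest concentration tested. Otherwise, values were interpolated linearly from a five-concentration, 48-hour dose response in 96-well plates. TGI: concentration producing complete growth inhibition.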
# Assays:
# Test in all cases: NCI anticancer screen, dose series, 48 h
# [1] = system: PC-3 prostate
# [2] = system: IGROV1 ovarian
# [3] = system: RXF 393 renal
# [4] = system: M14 melanoma
# [5] = system: LOX IMVI melanoma
# [6] = system: MALME-3M melanoma
# [7] = system: SNB-19 CNS
# [8] = system: CCRF-CEM leukemia
# [9] = system: NCI-H23 lung
# [10] = system: MDA-N
# [11] = system: U251 CNS
# [12] = system: HOP-62 NSCLC
# [13] = system: SK-OV-3 ovarian
# [14] = system: HCT-15 colon
# [15] = system: MDA-MB-435
# [16] = system: T-47D breast
# [17] = system: NCI/ADR-RES ovarian
# [18] = system: OVCAR-5 ovarian
# [19] = system: SF-295 CNS
# [20] = system: TK-10 renal
# [21] = system: HT29 colon
# [22] = system: SNB-75 CNS
# [23] = system: SK-MEL-2 melanoma
# [24] = system: SF-539 CNS
# [25] = system: 786-0 renal
# [26] = system: OVCAR-8 ovarian
# [27] = system: SK-MEL-5 melanoma
# [28] = system: RPMI-8226 leukemia
# [29] = system: NCI-H522 lung
# [30] = system: NCI-H460 lung
# [31] = system: HS 578T breast
# [32] = system: MDA-MB-231 breast
# [33] = system: SK-MEL-28 melanoma
# [34] = system: A498 renal
# [35] = system: A549 NSCLC
# [36] = system: OVCAR-3 ovarian
# [37] = system: KM12 colon
# [38] = system: MOLT-4 leukemia
# [39] = system: K-562 leukemia
# [40] = system: MCF7 breast
# [41] = system: SF-268 CNS
# [42] = system: EKVX NSCLC
# [43] = system: CAKI-1 renal
# [44] = system: UACC-62 melanoma
# [45] = system: SN12C renal
# [46] = system: ACHN renal
# [47] = system: UO-31 renal
# [48] = system: SW-620 colon
# [49] = system: OVCAR-4 ovarian
# [50] = system: BT-549 breast
# [51] = system: NCI-H226 lung
# [52] = system: HL-60(TB) leukemia
# [53] = system: SR leukemia
# [54] = system: HCC-2998 colon
# [55] = system: HCT-116 colon
# [56] = system: COLO 205 colon
# [57] = system: UACC-257 melanoma
# [58] = system: HOP-92 NSCLC
# [59] = system: DU-145 prostate
smiles,measurement,setting,value
O=C(COc1ccc(Cl)cc1Cl)N/N=C/C=C/c1ccc([N+](=O)[O-])o1,TGI,[1],> 100 µM
same,TGI,[2],6.79 µM
same,TGI,[3],59.8 µM
same,TGI,[4],> 100 µM
same,TGI,[5],38.9 µM
same,TGI,[6],6.65 µM
same,TGI,[7],41.4 µM
same,TGI,[8],15.2 µM
same,TGI,[9],39 µM
same,TGI,[10],> 100 µM
same,TGI,[11],> 100 µM
same,TGI,[12],54.4 µM
same,TGI,[13],59.6 µM
same,TGI,[14],> 100 µM
same,TGI,[15],> 100 µM
same,TGI,[16],> 100 µM
same,TGI,[17],> 100 µM
same,TGI,[18],> 100 µM
same,TGI,[19],> 100 µM
same,TGI,[20],91.5 µM
same,TGI,[21],> 100 µM
same,TGI,[22],59.2 µM
same,TGI,[23],> 100 µM
same,TGI,[24],> 100 µM
same,TGI,[25],65.9 µM
same,TGI,[26],76.6 µM
same,TGI,[27],5.26 µM
same,TGI,[28],9.22 µM
same,TGI,[29],2.83 µM
same,TGI,[30],> 100 µM
same,TGI,[31],7.4 µM
same,TGI,[32],95.6 µM
same,TGI,[33],> 100 µM
same,TGI,[34],> 100 µM
same,TGI,[35],> 100 µM
same,TGI,[36],> 100 µM
same,TGI,[37],> 100 µM
same,TGI,[38],6.14 µM
same,TGI,[39],> 100 µM
same,TGI,[40],> 100 µM
same,TGI,[41],> 100 µM
same,TGI,[42],> 100 µM
same,TGI,[43],> 100 µM
same,TGI,[44],> 100 µM
same,TGI,[45],> 100 µM
same,TGI,[46],> 100 µM
same,TGI,[47],> 100 µM
same,TGI,[48],> 100 µM
same,TGI,[49],61.8 µM
same,TGI,[50],58 µM
same,TGI,[51],> 100 µM
same,TGI,[52],> 100 µM
COC(=O)c1ccc(NCC2=CC(=O)C=CC2=O)cc1,TGI,[1],37 µM
same,TGI,[2],34.1 µM
same,TGI,[53],61 µM
same,TGI,[4],15.8 µM
same,TGI,[5],17.8 µM
same,TGI,[54],38.8 µM
same,TGI,[6],13.9 µM
same,TGI,[7],28.2 µM
same,TGI,[9],29.8 µM
same,TGI,[55],30.4 µM
same,TGI,[10],24.2 µM
same,TGI,[56],8.67 µM
same,TGI,[11],28.7 µM
same,TGI,[13],30.3 µM
same,TGI,[14],25.9 µM
same,TGI,[15],24.3 µM
same,TGI,[17],35.5 µM
same,TGI,[18],32.3 µM
same,TGI,[20],22.7 µM
same,TGI,[21],38.8 µM
same,TGI,[22],30.3 µM
same,TGI,[23],37.4 µM
same,TGI,[24],24.5 µM
same,TGI,[25],7.86 µM
same,TGI,[26],39.9 µM
same,TGI,[27],32.5 µM
same,TGI,[28],7.22 µM
same,TGI,[29],3.11 µM
same,TGI,[31],> 100 µM
same,TGI,[32],30.7 µM
same,TGI,[33],30.2 µM
same,TGI,[34],27.6 µM
same,TGI,[57],25.7 µM
same,TGI,[35],41.8 µM
same,TGI,[37],28.6 µM
same,TGI,[38],9.58 µM
same,TGI,[39],6.95 µM
same,TGI,[40],30.8 µM
same,TGI,[58],10.5 µM
same,TGI,[41],28.8 µM
same,TGI,[42],28.2 µM
same,TGI,[43],7.68 µM
same,TGI,[44],29 µM
same,TGI,[46],27 µM
same,TGI,[47],19.5 µM
same,TGI,[48],25.9 µM
same,TGI,[49],26.5 µM
same,TGI,[50],27 µM
same,TGI,[51],37.2 µM
same,TGI,[59],28.8 µM
same,TGI,[52],5.5 µM
CC(C)c1ccc2nc3ccc(C(=O)NCCN4CCN(c5ccccc5)CC4)cn3c(=O)c2c1,TGI,[2],> 100 µM
same,TGI,[4],> 100 µM
same,TGI,[54],> 100 µM
same,TGI,[7],> 100 µM
same,TGI,[8],> 100 µM
same,TGI,[9],> 100 µM
same,TGI,[55],> 100 µM
same,TGI,[10],> 100 µM
same,TGI,[56],> 100 µM
same,TGI,[11],> 100 µM
same,TGI,[12],> 100 µM
same,TGI,[13],> 100 µM
same,TGI,[14],> 100 µM
same,TGI,[17],> 100 µM
same,TGI,[18],> 100 µM
same,TGI,[19],4.91 µM
same,TGI,[20],> 100 µM
same,TGI,[21],> 100 µM
same,TGI,[25],> 100 µM
same,TGI,[26],> 100 µM
same,TGI,[27],7.81 µM
same,TGI,[29],> 100 µM
same,TGI,[30],> 100 µM
same,TGI,[31],> 100 µM
same,TGI,[32],> 100 µM
same,TGI,[33],> 100 µM
same,TGI,[34],> 100 µM
same,TGI,[57],> 100 µM
same,TGI,[35],> 100 µM
same,TGI,[36],> 100 µM
same,TGI,[37],> 100 µM
same,TGI,[39],> 100 µM
same,TGI,[40],> 100 µM
same,TGI,[41],> 100 µM
same,TGI,[42],> 100 µM
same,TGI,[43],> 100 µM
same,TGI,[44],> 100 µM
same,TGI,[47],> 100 µM
same,TGI,[48],> 100 µM
same,TGI,[49],> 100 µM
same,TGI,[50],> 100 µM
same,TGI,[51],> 100 µM
same,TGI,[59],> 100 µM
CC12C(=O)OC(=O)C1(C)C1C=CC2O1 (stereo unspecified),TGI,[1],> 100 µM
same,TGI,[2],> 100 µM
same,TGI,[3],> 100 µM
same,TGI,[53],> 100 µM
same,TGI,[4],> 100 µM
same,TGI,[5],> 100 µM
same,TGI,[54],> 100 µM
same,TGI,[6],> 100 µM
same,TGI,[7],> 100 µM
same,TGI,[8],> 100 µM
same,TGI,[9],> 100 µM
same,TGI,[55],> 100 µM
same,TGI,[10],> 100 µM
same,TGI,[56],> 100 µM
same,TGI,[11],> 100 µM
same,TGI,[13],> 100 µM
same,TGI,[14],> 100 µM
same,TGI,[15],> 100 µM
same,TGI,[17],> 100 µM
same,TGI,[18],> 100 µM
same,TGI,[19],> 100 µM
same,TGI,[20],> 100 µM
same,TGI,[21],> 100 µM
same,TGI,[22],> 100 µM
same,TGI,[23],> 100 µM
same,TGI,[24],> 100 µM
same,TGI,[25],> 100 µM
same,TGI,[26],> 100 µM
same,TGI,[27],> 100 µM
same,TGI,[28],> 100 µM
same,TGI,[29],> 100 µM
same,TGI,[30],> 100 µM
same,TGI,[31],> 100 µM
same,TGI,[32],> 100 µM
same,TGI,[33],> 100 µM
same,TGI,[34],> 100 µM
same,TGI,[57],> 100 µM
same,TGI,[35],> 100 µM
same,TGI,[36],99 µM
same,TGI,[37],> 100 µM
same,TGI,[38],> 100 µM
same,TGI,[39],> 100 µM
same,TGI,[40],> 100 µM
same,TGI,[41],> 100 µM
same,TGI,[42],> 100 µM
same,TGI,[43],> 100 µM
same,TGI,[44],> 100 µM
same,TGI,[45],> 100 µM
same,TGI,[46],> 100 µM
same,TGI,[47],> 100 µM
same,TGI,[48],> 100 µM
same,TGI,[50],> 100 µM
same,TGI,[51],48.1 µM
same,TGI,[59],> 100 µM
same,TGI,[52],> 100 µM
